Reference: patent US8148387B2, “AKT and P70 S6 kinase inhibitors” (Eli Lilly and Company, priority 2008, dated 2012)
Read-outs that look alike come from different tables or passages of the source.

Columns and labels:
[1] = tested on: phosphorylated S6 ribosomal protein serine 240/244 (pS6); test: AlphaScreen SureFire detection of pS6 in U87MG cells; type: cell-based; details: Homo sapiens, U-87 MG, 1 hour
Description: (§1) The effect of compounds on the formation of endogenous phosphorylated S6 ribosomal protein serine 240/244 (pS6) and phosphorylated GSK3β serine 9 (pGSK3β) are measured using the AlphaScreen SureFire® for either pS6 (TGR Biosciences, TGRS6P2S10K) or pGSK3β(TGRGBS10K). This is a homogeneous assay format using immuno-sandwich capture of the phosphorylated analyte followed by detection using antibody-coated Alphascreen beads to generate an amplified signal.
(§2) U87MG cells are maintained in U87MG growth medium consisting of DMEM supplemented with 10% Fetal bovine serum (FBS), 1% Nonessential amino acids and 1% sodium pyruvate. For the assay, cells are harvested by standard procedures and then counted using Vi-Cell. Cells (50,000/well) are plated in 100 μL of U87MG growth medium into Costar #3596 96 well plates. […]
(§3) On the day of the assay, cells are treated with 20 μL/well compound diluted in media containing 6% DMSO. […] The plate is sealed with foil, incubated at RT for 4 hours with gentle shaking and then read on Perkin Elmer EnVision equipped with a TurboModule using standard AlphaScreen® settings (Ex680nm and Em520-620nm). The percent inhibition determined from controls on each plate and ten-point compound concentration data are then fit to a four-parameter logistic equation using ACTIVITYBASE 4.0 (Assay Guidance Manual Version 5.0, 2008, Eli Lilly and Company and NIH Chemical Genomics Center).

[2] = tested on: phosphorylated GSK3β serine 9 (pGSK3β); test: AlphaScreen SureFire detection of pGSK3β in U87MG cells; type: cell-based; details: Homo sapiens, U-87 MG, 1 hour
Description: as §1, §2, §3

[3] = tested on: phosphorylation of the serine 240/244 site of S6RP; test: p70 S6K/AKT In Vivo Target Inhibition, U87MG xenograft, pS6; set-up: species or system athymic nude mice; details: Mus musculus, U-87 MG, IV Dose 12.5 mpk, U87MG tumors, read-out: p(S240) S6 - % inhibition
Description: (§4) U87MG human glioblastoma cells (5×106) are subcutaneously implanted into the flank of athymic nude mice in 0.2 mL of matrigel. Two weeks post-implantation, mice are dosed orally or parenterally according to a time course, single dose/single time point, or dose response protocol for the determination of TMED50 (threshold minimum effective dose). Tumors are flash frozen at harvest and blood is collected for the determination of parent compound plasma exposure and the calculation of TMEC50 (threshold minimum effective concentration) in the case of dose response studies. Tumors or tissues are pulverized in liquid N2 and lysed in 400 μL of XY Lysis Buffer (10 μg/mL Leupeptin, 10 μg/mL Trypsin-Chymotrypsin Inhibitor, 10 μg/mL Tosyl phenyl-alanyl chloromethyl ketone, 10 μg/mL Aprotinin, 60 mM Beta-Glycerol Phosphate, 1% Triton X100, 25 mM Tris pH 7.5, 2.5 mM Pyrophosphate, 150 mM NaCl, 2 mM p-tosyl-L-arginine methyl ester, 15 mM para-nitrophenyl phosphate, 5 mM Benzamidine, 1 mM Na Vanadate, 10 mM NaF, 50 μg/mL phenyl-methane sulfonyl fluoride, 1 mM 1,4-Dithiothreitol (DTT), 15 mM EDTA pH 8.0, 5 mM EGTA pH 8.0, 1 μM Microcystin, 1 μM Okadaic Acid, and 1 Roche Complete protease inhibitor mini-tablet per 10 mL) using Lysing Matrix D tubes (MP Biomedicals, Solon, Ohio, cat#6913-500) and a BIO101 Thermo Savant Fast Prep FP12. Lysates are aliquoted and either assayed immediately or stored at −80° C. for later testing. In Vivo Target Inhibition of p70 S6K and AKT is measured utilizing Meso Scale Discovery (Gaithersburg, Md.) ELISA technology to assess effects on phosphorylation of the serine 240/244 site of the downstream effector S6RP. Phosphorylation of p70 S6K(T389), AKT(5473) and GSK3β(S9) is also assessed using this technology in a multiplex format. In summary, 20 μg of lysate is added to carbon electrode containing 96-well plates pre-spotted with the appropriate capture antibodies. The protein of interest is probed using a ruthenium labeled detection antibody. Upon the passage of current over the electrode in the presence of read buffer containing the co-reactant TPA, electro-chemiluminescence results in the generation of light which is quantified and recorded using the MSD Sector 6000 instrument. For each study, percent inhibitions are calculated relative to the vehicle control group and ANOVA analysis is performed using the JMP software package for the determination of statistical significance.

[4] = tested on: Phosphorylation of GSK3β(S9); test: p70 S6K/AKT In Vivo Target Inhibition, U87MG xenograft, pGSK3β; set-up: species or system athymic nude mice; details: Mus musculus, U-87 MG, IV Dose 12.5 mpk, U87MG tumors, read-out: p(S9)GSK 3β - % inhibition
Description: as §4

For CN(C)CCn1cc(-c2ccc(F)c(C(F)(F)F)c2)nc1C1CCN(c2ncnc3c2C(C)(C)C(=O)N3)CC1 [Example 31], the IC50 [1] was 65 nM, the IC50 [2] was 331 nM and the inhibition at 12.5 mg/kg ([3]; 1 hr post IV dose) was 79.2%. It also gave an inhibition at 12.5 mg/kg ([3]; 2 hr post IV dose) of 87.6%, an inhibition at 12.5 mg/kg ([3]; 4 hr post IV dose) of 94.9% and an inhibition at 12.5 mg/kg ([3]; 6 hr post IV dose) of 91.7%. For the same compound, the inhibition at 12.5 mg/kg ([3]; 8 hr post IV dose) was 96.4%, the inhibition at 12.5 mg/kg ([3]; 24 hr post IV dose) was 45% and the inhibition at 12.5 mg/kg ([4]; 1 hr post IV dose) was 48.4%. It also gave an inhibition at 12.5 mg/kg ([4]; 2 hr post IV dose) of 12.6%, an inhibition at 12.5 mg/kg ([4]; 4 hr post IV dose) of 20.5% and an inhibition at 12.5 mg/kg ([4]; 6 hr post IV dose) of 51.7%. The inhibition at 12.5 mg/kg ([4]; 8 hr post IV dose) was 20.1% and the inhibition at 12.5 mg/kg ([4]; 24 hr post IV dose) was 6%.
